Experimental data reported in patent US12044651B2, “Sensor device and methods” (SCENTIAN BIO LIMITED, priority 2016, dated 2024).
Read-outs that look alike come from different tables or passages of the source. Marks after values point to notes of the source that are not given here.

Assays:
[1] = system: AgOR8/Orco; details: ref 33; cited from earlier work
[2] = system: OBP proteins; details: ref 41; cited from earlier work
[3] = target: DOr85b/Orco (Drosophila melanogaster, UniProt Q9VHQ7); details: cited from earlier work
Sequence of DOr85b/Orco (Q9VHQ7 whole entry): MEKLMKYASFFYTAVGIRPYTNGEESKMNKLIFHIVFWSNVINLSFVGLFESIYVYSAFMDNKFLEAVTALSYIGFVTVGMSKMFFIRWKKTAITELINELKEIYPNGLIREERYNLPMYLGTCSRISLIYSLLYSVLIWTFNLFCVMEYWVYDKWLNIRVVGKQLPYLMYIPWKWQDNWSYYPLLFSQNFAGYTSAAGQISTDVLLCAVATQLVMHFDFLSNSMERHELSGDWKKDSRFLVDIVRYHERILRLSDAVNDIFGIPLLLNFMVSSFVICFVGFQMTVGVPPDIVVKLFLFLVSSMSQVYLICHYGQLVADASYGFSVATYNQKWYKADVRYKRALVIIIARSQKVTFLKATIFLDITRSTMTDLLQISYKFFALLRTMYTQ
Sequence of DOr85b/Orco (Q9VNB5 whole entry partner): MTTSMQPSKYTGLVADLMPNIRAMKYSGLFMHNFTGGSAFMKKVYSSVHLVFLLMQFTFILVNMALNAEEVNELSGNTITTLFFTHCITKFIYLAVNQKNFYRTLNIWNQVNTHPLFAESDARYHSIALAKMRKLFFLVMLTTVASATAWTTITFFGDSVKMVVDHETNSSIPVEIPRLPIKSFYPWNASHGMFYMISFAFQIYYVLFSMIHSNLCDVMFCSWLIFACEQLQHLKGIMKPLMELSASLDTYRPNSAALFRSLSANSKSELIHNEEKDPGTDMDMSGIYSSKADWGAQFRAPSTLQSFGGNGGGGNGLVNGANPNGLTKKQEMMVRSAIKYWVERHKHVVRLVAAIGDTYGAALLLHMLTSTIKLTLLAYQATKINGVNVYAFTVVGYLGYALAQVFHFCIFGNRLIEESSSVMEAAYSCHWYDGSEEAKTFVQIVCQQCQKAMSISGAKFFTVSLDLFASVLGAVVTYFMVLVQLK

[4] = target: T1, OR71a (Drosophila melanogaster, UniProt Q9VUK5); assay: CNT-FET sensor covalently functionalized with Or71a nanodiscs (Example 3); format: binding
T1 sequence (Q9VUK5 1-378): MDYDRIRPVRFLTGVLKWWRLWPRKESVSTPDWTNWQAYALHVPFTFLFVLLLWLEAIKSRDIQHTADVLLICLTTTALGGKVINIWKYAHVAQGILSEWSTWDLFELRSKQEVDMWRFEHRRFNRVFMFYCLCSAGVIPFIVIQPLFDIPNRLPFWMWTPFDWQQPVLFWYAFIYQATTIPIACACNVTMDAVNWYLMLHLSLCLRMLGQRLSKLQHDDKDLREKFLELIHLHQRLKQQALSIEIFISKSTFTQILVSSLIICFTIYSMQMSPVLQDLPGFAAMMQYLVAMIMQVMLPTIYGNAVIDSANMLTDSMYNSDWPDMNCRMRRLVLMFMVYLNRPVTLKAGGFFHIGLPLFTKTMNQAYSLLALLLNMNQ
Description: The dispersion was sonicated until a clear solution was obtained. The temperature was kept at 25° C. throughout the sonication process. The thiolpyridine solution was prepared by dissolving 10 mg of 2-Mercaptopyridine (99%, Sigma Aldrich) in 1 ml of methanol. The solution was spun coated on a polydimethylsiloxane (PDMS) surface at 2000 rpm for one minute. Before the spin coating process, the PDMS surface was cleaned by a 50 W Oxygen plasma for 1 minute to improve the wettability. The cleaned substrates were placed upside down on the PDMS surface for three minutes and washed in ethanol to remove the excess thiolpyridine molecules. Then the substrates were transferred into the CNT suspension and immersed into the suspension for 10 minutes. The samples were removed from the suspension and dipped into Ethanol for another 10 minutes to remove the thiolpyridine molecules in the SWNT network. The alignment markers were deposited by defining the markers by photolithography and thermal evaporation of 5 nm Chromium and 50 nm of Gold. The metal Lift off was done by acetone immersion for 15 minutes followed by an Isopropyl alcohol (IPA) wash and N2 blow dry. The result is a uniform thin film CNT network covering the entire substrate surface. The purification procedure is a variation on the one detailed in […] et al. 2013^14. […] Purity was assessed on Coomassie stained SDS-PAGE gels and Western blotting. […]

[5] = target: T1, OR71a; assay: EIS sensor, Or71a liposomes on gold electrode, optimized conditions (Example 5); format: binding; details: EIS
[6] = target: T2, AgOR1/Orco (Anopheles gambiae, UniProt Q8WTE7); details: ref 33; cited from earlier work
T2 construct: host or cells: Xenopus oocytes
T2 sequence (Q8WTE7 whole entry): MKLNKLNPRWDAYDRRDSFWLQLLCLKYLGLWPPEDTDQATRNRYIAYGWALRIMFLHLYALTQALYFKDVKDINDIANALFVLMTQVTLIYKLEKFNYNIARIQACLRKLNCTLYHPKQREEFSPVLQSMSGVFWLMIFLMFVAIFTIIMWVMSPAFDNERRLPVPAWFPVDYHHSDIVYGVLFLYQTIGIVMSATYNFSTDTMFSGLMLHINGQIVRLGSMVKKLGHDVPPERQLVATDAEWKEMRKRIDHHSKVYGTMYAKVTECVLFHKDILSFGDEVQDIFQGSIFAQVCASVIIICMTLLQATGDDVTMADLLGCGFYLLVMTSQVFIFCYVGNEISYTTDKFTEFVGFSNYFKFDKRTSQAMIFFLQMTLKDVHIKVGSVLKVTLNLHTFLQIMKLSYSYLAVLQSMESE
T2 sequence (Q7QCC7 whole entry partner): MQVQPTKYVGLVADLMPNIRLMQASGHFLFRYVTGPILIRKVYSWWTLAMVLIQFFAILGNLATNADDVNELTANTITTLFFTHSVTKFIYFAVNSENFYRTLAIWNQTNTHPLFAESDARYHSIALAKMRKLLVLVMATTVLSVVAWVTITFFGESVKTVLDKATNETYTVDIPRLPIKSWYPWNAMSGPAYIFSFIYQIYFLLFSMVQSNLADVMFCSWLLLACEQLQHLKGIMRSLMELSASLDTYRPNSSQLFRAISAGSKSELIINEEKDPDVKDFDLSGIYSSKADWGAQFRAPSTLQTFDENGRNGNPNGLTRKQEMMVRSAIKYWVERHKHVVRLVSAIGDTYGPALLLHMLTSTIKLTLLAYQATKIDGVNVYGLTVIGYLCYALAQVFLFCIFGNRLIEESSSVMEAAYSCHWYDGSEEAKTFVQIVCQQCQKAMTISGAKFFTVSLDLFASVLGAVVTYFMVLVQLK

[7] = system: ApolOR1/Orco; details: +ApolPBP2; estimated visually from graph; cited from earlier work
[8] = system: BmOR3/Orco; details: cited from earlier work
[9] = system: BmOR3/Orco; details: ref 13; cited from earlier work
[10] = system: BmOr1/Orco; details: cited from earlier work
[11] = system: BmOR1/Orco; details: cited from earlier work
[12] = system: BmOR1/Ocro; details: ref 13; cited from earlier work
[13] = system: EpOR3/Orco; details: estimated visually from graph; cited from earlier work
[14] = system: ECB (Z) OR3/Orco; details: ref 2; cited from earlier work
[15] = system: OscaOR1/Orco; details: cited from earlier work
[16] = system: OnOr1/Orco; details: ref 32; cited from earlier work
[17] = system: DiOR1/Orco; details: cited from earlier work
[18] = system: SexiOR13/Orco; details: ref 26; cited from earlier work
[19] = system: SexiOR16/Orco; details: ref 26; cited from earlier work
[20] = system: HVOR6/Orco; details: ref 31; cited from earlier work
[21] = system: MsiOR1/Orco; details: cited from earlier work
[22] = system: PxOR1/Orco; details: cited from earlier work
[23] = system: HVOR13/Orco; details: ref 31; cited from earlier work
[24] = system: BmOr47/Orco; details: cited from earlier work
[25] = system: BmOr45/Orco; details: cited from earlier work
[26] = target: DmOr22a/Orco (Drosophila melanogaster, UniProt P81909); details: cited from earlier work
Sequence of DmOr22a/Orco (P81909 whole entry): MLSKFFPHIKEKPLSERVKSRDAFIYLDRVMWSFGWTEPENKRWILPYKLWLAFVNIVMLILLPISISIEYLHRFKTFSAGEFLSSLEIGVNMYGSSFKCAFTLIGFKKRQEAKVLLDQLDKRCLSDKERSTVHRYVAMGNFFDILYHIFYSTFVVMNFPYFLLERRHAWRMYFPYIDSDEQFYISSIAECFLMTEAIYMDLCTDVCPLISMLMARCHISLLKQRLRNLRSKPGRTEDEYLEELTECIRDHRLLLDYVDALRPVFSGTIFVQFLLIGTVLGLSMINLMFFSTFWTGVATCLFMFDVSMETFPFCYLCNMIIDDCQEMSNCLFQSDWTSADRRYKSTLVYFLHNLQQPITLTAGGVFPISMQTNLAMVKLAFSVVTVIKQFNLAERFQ

[27] = system: AgOr65/Orco; details: given as Log, cited from earlier work
[28] = system: AgOr65/Orco; details: ref 33; cited from earlier work
[29] = system: AgOr48/Orco; details: given as Log, cited from earlier work
[30] = system: EpOR1/Orco; details: cited from earlier work
[31] = system: BdorOBP2; details: ref 39; cited from earlier work
[32] = system: EpOR3/Orco; details: ref 19; cited from earlier work
[33] = system: AgOr10/Orco; details: ref 33; cited from earlier work
[34] = target: T3, AgOR2/Orco (Anopheles gambiae, UniProt Q8WTE6); details: ref 33; cited from earlier work
T3 construct: host or cells: Xenopus oocytes
T3 sequence (Q8WTE6 whole entry): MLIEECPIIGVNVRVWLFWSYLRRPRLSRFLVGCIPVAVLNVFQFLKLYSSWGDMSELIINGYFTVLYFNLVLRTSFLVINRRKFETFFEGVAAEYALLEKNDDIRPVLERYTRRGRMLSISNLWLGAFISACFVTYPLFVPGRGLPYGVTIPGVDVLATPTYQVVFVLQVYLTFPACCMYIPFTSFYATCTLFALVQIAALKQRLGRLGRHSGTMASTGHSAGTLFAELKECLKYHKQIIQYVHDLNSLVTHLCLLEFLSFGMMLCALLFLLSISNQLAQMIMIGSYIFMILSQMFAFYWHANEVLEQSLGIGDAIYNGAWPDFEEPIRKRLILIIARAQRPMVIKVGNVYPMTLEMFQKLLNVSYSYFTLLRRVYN
T3 sequence (Q7QCC7 whole entry partner): as the sequence (Q7QCC7 whole entry partner) above

[35] = system: BmOr19/Orco; details: cited from earlier work

C=CC(O)CCCCC (stereo not shown) [1-octen-3-ol]
EC50 [1]: 186 nM

CCCCCC(C)=O [2-heptanone]
concentration that could be detected [2]: 0.018 M
Sensitivity limit ([3]; estimated visually from graph): 10^−8 − 10^−6 M*
EC50 ([3]; ref 12): 45600 nM

CCc1ccc(OC)c(O)c1 [4-ethyl guaiacol]
limit of detection ([4]; nanodiscs 1:100 dilution): below 1 fM
concentration at which clear electronic response starts ([4]; real time current measurement mode): 1 fM
LOD [5]: 0.1 fM

Cc1ccc(O)cc1 [4-methylphenol]
EC50 [6]: 412 nM

CCCC/C=C\CCC/C=C/CCCCC=O [(E,Z) -6,11-hexadecadienal]
Sensitivity limit [7]: 10^−15 M*

CCC/C=C\C=C\CCCCCCCCC=O [Bombykal]
Sensitivity limit ([8]; estimated visually from graph): 10^−8 − 10^−6 M*
EC50 ([8]; ref 12): 380 nM
EC50 [9]: 2030 nM
Sensitivity limit [9]: 300 nM

CCC/C=C\C=C\CCCCCCCCCO [Bombykol]
EC50 ([10]; ref 29): 34000 nM
EC50 ([10]; ref 30): 5900 nM
Sensitivity limit ([11]; estimated visually from graph): 10^−8 − 10^−6 M*
EC50 ([11]; ref 12): 250 nM
EC50 [12]: 4390 nM
Sensitivity limit [12]: 1000 nM

CC(C)=CCCC(C)=CC=O [Citral]
Sensitivity limit [13]: 10^−15 M*

CC/C=C/CCCCCCCCCCOC(C)=O [E11 pheromone]
EC50 [14]: 12.5 nM
Sensitivity limit [14]: 10^−9 M^

CC/C=C/CCCCCCCCCCO [E11-14:OH]
Sensitivity limit ([15]; estimated visually from graph): 10^−7 M*
EC50 ([15]; ref 27): 1000 nM

C/C=C/CCCCCCCCCCCOC(C)=O [E12-14:OAc]
EC50 [16]: 260 nM

CCCC/C=C/CCCCCCCCCC=O [EII-16:Ald]
Sensitivity limit ([17]; estimated visually from graph): 10^−7 M*
EC50 ([17]; ref 28): 1000 nM

C/C=C/C/C=C\CCCCCCCCOC(C)=O [Z9, E12-14:OAc]
EC50 [18]: 3160 nM

CCCC/C=C\CCCCCCCCO [Z9-14:OH]
EC50 [19]: 969 nM

CCCC/C=C\CCCCCCCC=O [Z9-14:ald]
EC50 [20]: 979 nM

CCCC/C=C\CCCCCCCCCCOC(C)=O [Z11-16:Ac]
Sensitivity limit ([21]; estimated visually from graph): 10^−7 M*
EC50 ([21]; ref 28): 1000 nM

CCCC/C=C\CCCCCCCCCC=O [Z11-16:Ald]
Sensitivity limit ([22]; estimated visually from graph): 10^−8 − 10^−6 M*
EC50 ([22]; ref 12): 2520 nM
EC50 [23]: 979 nM

O=C(O)c1ccccc1 [benzoic acid]
Sensitivity limit ([24]; estimated visually from graph): 10^−14 M*
EC50 ([24]; ref 18): 0.0142 nM
Sensitivity limit ([25]; estimated visually from graph): 10^−11 M*
EC50 ([25]; ref 18): 0.144 nM

CCCC(=O)OCC [ethyl butyrate]
Sensitivity limit ([26]; estimated visually from graph): 10^−12 M*
EC50 ([26]; ref 3): 0.0158 nM

C=CCc1ccc(O)c(OC)c1 [eugenol]
Ec50 (Log) [27]: Log = −6.54
Sensitivity limit (Log) ([27]; ref 23, estimated visually from graph): Log = −7*
EC50 [28]: 34.4 nM

CCCCCCCCC1CCC(=O)O1 (stereo not shown) [g-dodecalactone]
Ec50 (Log) [29]: Log = −7.01
Sensitivity limit (Log) ([29]; ref 25, estimated visually from graph): Log = −8*

CC(C)=CCC/C(C)=C/CO [geraniol]
Sensitivity limit ([30]; estimated visually from graph): 10^−14 M*
EC50 ([30]; ref 17): 0.0018 nM
detection limit [31]: ~10^−6 M

CC(=O)OC/C=C(\C)CCC=C(C)C [geranyl acetate]
EC50 [32]: 1000 nM

c1ccc2[nH]ccc2c1 [indole]
EC50 [33]: 137 nM
EC50 [34]: 16.7 nM

C=CC(C)(O)CCC=C(C)C (stereo not shown) [linalool]
Sensitivity limit ([35]; estimated visually from graph): 10^−10 M*
EC50 ([35]; ref 18): 4.69 nM
detection limit [31]: ~10^−6 M
